Calls of active or inactive are those of the source. The rule behind the calls is not given here.
Columns and labels:
[1] = tested on: Severe fever with thrombocytopenia syndrome virus; assay: In vivo antiviral activity against SFTSV infected in mouse harboring IFNAR1tm1Agt assessed as improvement in lymphocytes percentage at 300 mg/kg, po qd treated for 7 days relative to control; type: functional, organism-based; settings: time 7.0 day
[2] = tested on: Severe fever with thrombocytopenia syndrome virus; assay: In vivo antiviral activity against SFTSV infected in mouse harboring IFNAR1tm1Agt assessed as improvement in lymphocytes percentage treated orally once daily for 7 days; type: functional, organism-based; settings: dose 2.5-100 mg/kg, route po, time 7.0 day

## NC(=O)c1nc(F)cnc1O
[1]
  Activity: Active

## CC(C)C(=O)OC[C@@]1(F)O[C@@H](n2ccc(=O)n(COC(=O)c3cccnc3)c2=O)[C@H](OC(=O)C(C)C)[C@@H]1OC(=O)C(C)C
[2]
  Activity: Dose-dependent-effect

From ChEMBL document CHEMBL6177980 (J Med Chem, 2025)
